Patent US20190337989A1, “IMMUNITY INDUCER” (priority 2016, published 2019)
Several values for one entry are separate records, joined by “and”; a condition that tells them apart may be missing. Identical values can stand only once. Entries after “also recorded” stand apart in the source; their conditions may differ. Like-named read-outs stand apart in the source and are kept apart here.

Tests used:
[1] = tested on: avian influenza virus; design: species or system mice; conditions: mouse, in vivo, iv
[2] = tested on: avian influenza virus; design: species or system Balb/c mice; conditions: mouse, in vivo, ip

Core-[PEG-STQKAID]4 [avian influenza MAP4]
induction of IgG and IgM antibodies against the avian influenza virus [1]: found to be induced; also recorded: enabled induction of IgG and IgM antibodies | IgG concentration [2]: higher than 100 ng/ml | induction of IgG and IgM antibodies against the avian influenza virus [2]: enabled induction of IgG and IgM antibodies | mice in which IgM antibodies were induced [2]: 5 out of 5 mice and increased in all mice | mice with apparent increase in the IgG level [2]: 3 mice out of 5 mice | subclasses exhibiting increased IgG antibody levels [2]: IgG and IgG3; also recorded: IgG1 and IgG3 | total level of IgG antibody converted to anti-FLAG antibody [2]: 157 ng/mL and 154 ng/mL and 106 ng/mL and 122 ng/mL and 148 ng/mL and 83 ng/mL
